Source: patent US10085957B2, “Benzoic acid compounds for reducing uric acid” (Wellstat Therapeutics Corporation, priority 2010, dated 2018)
Like-named read-outs stand apart in the source and are kept apart here.

Biological target: T1, human URAT1 (Homo sapiens, UniProt Q96S37)
T1 construct: The full-length hURAT1 cDNA was obtained from the vector pCMV6-XL5 and subcloned into the expression vector pCMV6-Neo
T1 sequence (Q96S37 1-553): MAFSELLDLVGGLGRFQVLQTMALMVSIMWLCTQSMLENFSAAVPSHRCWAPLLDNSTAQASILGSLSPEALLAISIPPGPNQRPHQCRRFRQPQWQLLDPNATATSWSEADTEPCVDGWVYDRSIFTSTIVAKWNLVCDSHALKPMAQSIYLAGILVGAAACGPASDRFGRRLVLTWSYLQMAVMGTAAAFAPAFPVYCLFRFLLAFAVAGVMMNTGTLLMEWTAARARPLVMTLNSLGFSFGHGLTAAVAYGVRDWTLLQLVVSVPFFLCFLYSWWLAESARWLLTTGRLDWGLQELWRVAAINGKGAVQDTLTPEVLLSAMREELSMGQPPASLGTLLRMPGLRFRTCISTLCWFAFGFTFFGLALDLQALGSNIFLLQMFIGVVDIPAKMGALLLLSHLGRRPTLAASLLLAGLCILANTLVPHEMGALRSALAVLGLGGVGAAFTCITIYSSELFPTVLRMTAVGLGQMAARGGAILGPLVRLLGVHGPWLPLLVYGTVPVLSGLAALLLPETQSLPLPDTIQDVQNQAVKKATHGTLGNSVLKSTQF
Assay: URAT1 inhibition assay: [8-14C] urate uptake in hURAT1-HEK cells
Type: cell-based
Experimental: An in vitro URAT1 assay is useful for identifying compounds with potential activity in lowering serum uric acid. A suitable assay involves transfection of cells (e.g. human embryonic kidney cells; “HEK”) with a vector encoding human URAT1, followed by determination of the ability of transfected cells to take up radiolabeled uric acid. The activity of compounds as URAT1 inhibitors is evaluated by their ability to block uric acid uptake by transfected cells.
Plasmid vector pCMV6-XL5 containing hURAT1 cDNA (Cat. No. SC125624) and the expression vector pCMV6-Neo (Cat. No.pCMVNEO) were obtained from OriGene Technologies, Inc. The full-length hURAT1 cDNA was obtained from the vector pCMV6-XL5 and subcloned into the expression vector pCMV6-Neo to create the hURAT1 expression plasmid pCMV6-hURAT1. The sequences were verified by automatic DNA sequencing.
Human embryonic kidney 293 (HEK) cells (ATTCC, Cat No. CRL-1573) were cultured in EMEM supplemented with 10% FBS and 2 mM L-glutamine and incubated at 37° C. and 5% CO2. For transfection experiments, cells were plated on 60 mm dishes in 1 ml media per dish. After an 18-24 hour incubation, cells were transfected with plasmid pCMV6-hURAT1 or the expression vector pCMV6-Neo, using the Lipofectin trasfection agent following the manufacturer's instructions (Invitrogen, Cat.No. 18292). After transfection cells were grown in EMEM media for 72 hours and then by adding lmg/ml Geneticin (GIBCO, Cat. No 10131) stable transfectants were selected. Stable transfectants expressing hURAT1 (herein after referred as hURAT1-HEK cells) or cells having only the expression vector pCMV6-Neo (herein after referred as mock-HEK cells) were verified using reverse transcription polymerase chain reaction (RT-PCR) methods.
hURAT1-HEK cells and mock-HEK cells were plated in poly-D-Lysine Cell culture 24 well plates (Becton Dickinson, Cat. No. 354414) at a concentration of 3×10^5 in EMEM medium and incubated overnight. Reaction solutions containing the [8-^14C] urate (55 mCi/mmol) at a final concentration of 50 μM were prepared with or without test compounds in Hanks' balanced salt solution (HBSS) containing 125 mM sodium gluconate, 4.8 mM potassium gluconate, 1.3 mM calcium, 5.6 mM glucose, 1.2 mM magnesium sulfate, 1.2 mM KH2PO4 and 25 mM HEPES (pH7.4). Before the uptake assay started, the culture medium was removed and the cells were incubated for 5 min in 0.6 ml of HBSS. After that HBSS was removed, the prepared reaction solutions were added into each well and incubated for 5 min at room temperature. Then the reaction solution was removed, cells were washed twice with 0.6 ml of cold HBSS and lysed with 0.2 ml of 0.1 M NaOH for 20 min. The cell lysates were transferred into the scintillation vials containing 1 ml of scintillation fluid (Opti Phase SuperMIX, PerkinElmer, Cat No. 1200-439) and the radioactivity was counted in the Microbeta counter (1450, Wallac Jet, PerkinElmer). Test compounds were dissolved in DMSO and the same concentration of DMSO was added into the wells of mock-HEK cells and the hURAT1-HEK cells that didn't contain test compounds. For each test compound, the uptake assay was performed 2 times and carried out in triplicate. Urate uptake of the cells for each test condition was presented as the average percent inhibition in comparison to the DMSO control. The radioactivity values obtained for the wells that contained DMSO were taken as 100% uptake of the cells. The observed concentration-percent inhibition data were fitted to a sigmoidal concentration-effect model, where: % Inhibition=(100*Conc^Slope)/(IC50^Slope+Conc^Slope)
IC50 and slope estimates with their 95% confidence limits were determined by a non-linear, least-squares regression analysis using the Data Analysis Toolbox™ (MDL Information Systems, San Leandro, Calif., USA). […]

[1] = 10 μM test compound, 14C urate uptake in hURAT1-HEK cells, vs DMSO control, read-out: % of inhibition (at 10 μM)

COc1ccc(C(=O)O)cc1OCc1c(C)cccc1C [Compound FC, 3-(2,6-dimethylbenzyloxy)-4-methoxybenzoic acid] gave an inhibition at 10 µM [1] of 89.2%, an inhibition at 0.05 µM (concentration 0.05 μM, urate uptake in hURAT1-HEK cells) of 7.08% and an inhibition at 0.1 µM (concentration 0.1 μM, urate uptake in hURAT1-HEK cells) of -1.08%. For the same compound, the inhibition at 0.5 µM (concentration 0.5 μM, urate uptake in hURAT1-HEK cells) was 34.6%, the inhibition at 1 µM (concentration 1 μM, urate uptake in hURAT1-HEK cells) was 49.8% and the inhibition at 10 µM (concentration 10 μM, urate uptake in hURAT1-HEK cells (Table 2), read-out: % of inhibition Avg.) was 93.3%. The inhibition at 100 µM (concentration 100 μM, urate uptake in hURAT1-HEK cells) was 97.8%.
In the case of Cc1ccc(CC(=O)O)cc1OCc1c(C)cccc1C [EH, 2-(3-(2,6-Dimethylbenzyloxy)-4-methylphenyl)acetic acid, reference compound], the inhibition at 10 µM [1] is reported as 95.6%.
In the case of Cc1ccc(C(=O)O)cc1OCc1c(C)cccc1C [FA, 3-(2,6-dimethylbenzyloxy)-4-methylbenzoic acid], the inhibition at 10 µM [1] is reported as 83.2%.
Compound Cc1cccc(C)c1COc1cc(C(=O)O)ccc1[N+](=O)[O-] [FB, 3-(2,6-dimethylbenzyloxy)-4-nitrobenzoic acid] has an inhibition at 10 µM [1] of 81%.
Compound Cc1cccc(C)c1COc1cc(C(=O)O)ccc1F [FD, 3-(2,6-dimethylbenzyloxy)-4-fluorobenzoic acid] has an inhibition at 10 µM [1] of 68.1%.
Cc1cccc(C)c1COc1cc(C(=O)O)ccc1N [FE, 4-amino-3-(2,6-dimethylbenzyloxy)benzoic acid] showed an inhibition at 10 µM [1] of 10%.
